Laboratory results: US12037324B2, “Biarylmethyl heterocycles” (Université de Montréal, priority 2016, dated 2024)

What was measured:
Assay type in all cases: cell-based
[1] = target: T1, AGTR1 (Homo sapiens, UniProt P30556); assay: DiscoveRx β-arrestin2 recruitment assay (enzyme complementation, Pathunter CHO-K1 AGTR1 β-arrestin cell line); conditions: DiscoveRx β-arrestin2 recruitment; for DiscoveRx β-arrestin2 Ymax (%): maximal response
T1 construct: host or cells: Pathunter CHO-K1 AGTR1 β-arrestin cell line (CHO-K1)
T1 sequence (P30556 1-359): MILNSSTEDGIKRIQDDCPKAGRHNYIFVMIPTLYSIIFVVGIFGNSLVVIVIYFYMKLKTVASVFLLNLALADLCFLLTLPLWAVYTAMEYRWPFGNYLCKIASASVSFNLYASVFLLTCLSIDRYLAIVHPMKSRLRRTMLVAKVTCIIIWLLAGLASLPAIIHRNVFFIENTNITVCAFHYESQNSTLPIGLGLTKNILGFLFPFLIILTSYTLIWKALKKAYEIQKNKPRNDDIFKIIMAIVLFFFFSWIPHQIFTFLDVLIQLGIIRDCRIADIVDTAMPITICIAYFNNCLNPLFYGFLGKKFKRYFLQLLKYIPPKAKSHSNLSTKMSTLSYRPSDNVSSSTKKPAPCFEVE
Protocol: In one aspect of the invention, signaling bias of compounds was assessed by comparing the relative activity of compounds to activate both the β-arrestin and Gq signaling pathways. In order to confirm signaling bias, compounds were studied in two different assay formats. DiscoveRx β-arrestin2 Recruitment and IP1 Assays β-arrestin2 recruitment to activated receptors can be assessed using an enzyme complementation method (Zhao, Jones et al. 2008). […] Cells (5000/well) were plated into 1536 well plates (Cellocoat plates, Greiner Bio One, Monroe, NC) 14-16 hours before each experiment in 20 μl DMEM/F12 medium (Thermo-Fisher Scientific, Carlsbad, CA) containing heat-inactivated 1% fetal bovine serum. Subsequently, the compounds of interest were added at varying concentrations to the wells in a volume of 200 nl and the cells incubated for 90 min at 37° C. The detection reagent (10 μl) was added to each well and the plates incubated at room temperature for 1 hour before measurement of chemiluminescence using an EnVision Multilabel Reader (Perkin-Elmer, Waltham, MA). The data are processed using Toolset for Runmaster QCMulti. Concentration-response curves are fitted and EC50s (agonist mode) and IC50s (antagonist mode) estimated using a 4-parameter logistic equation. Compound activities are reported as a relative percentage to the maximal effect of All in the assays.

[2] = target: T2, hAT1R (Homo sapiens, UniProt P30556); assay: BRET β-arrestin2 biosensor assay, higher receptor expression (hAT1R 5 ng/well), HEK293 cells; conditions: for EC50: High AT1R Expression
T2 sequence (P30556 1-359): T1 sequence (P30556 1-359)

[3] = target: T1, AGTR1; assay: DiscoveRx IP1 accumulation assay (HTRF), agonist mode, Pathunter CHO-K1 AGTR1 β-arrestin cell line; conditions: for EC50: read-out: IP-1 EC50
Protocol: In one aspect of the invention, signaling bias of compounds was assessed by comparing the relative activity of compounds to activate both the β-arrestin and Gq signaling pathways. In order to confirm signaling bias, compounds were studied in two different assay formats.
DiscoveRx β-arrestin2 Recruitment and IP1 Assays
Gq activation can be assessed by measuring the accumulation of inositol phosphates (e.g. IP3, IP1) that are liberated following activation of phospholipase C by Gq (Thomsen, Frazer et al. 2005). In the current invention we have utilized the DiscoveRx Pathunter CHO-K1 AGTR1 β-arrestin cell line to also measure IP1 accumulation in response to compounds. IP1 accumulation was measured in both agonist and antagonist modes. In agonist mode, cells are plated as above 14-16 hours before the experiment. The medium is then removed and compounds at varying concentrations added in a final volume of 20 μl. The cells are incubated at 37° C. for 90 min. IP1 accumulation detected using a commercial HTRF assay according to manufacturer's instructions (Cisbio, Bedford, MA). Specifically, 4 μl of D2-conjugate solution (diluted 1:20 in Cisbio HTRF assay buffer) is added to each well, followed by the addition of 4 μl of anti-IP1 cryptate diluted 1:20 in HTRF assay buffer and the plates incubated for 20 min at room temperature. 14 μl from each well is measured using an Envision multi-label reader and data processed using Toolset for Runmaster QCMulti. Concentration-response curves are fitted and EC50s (agonist mode) and IC50s (antagonist mode) estimated using a 4-parameter logistic equation. Compound activities are reported as a relative percentage to the maximal effect of All in the assays.

SMILES	EC50 [1] [nM]	DiscoveRx β-arrestin2 Ymax (%) [1] [%]	BRET β-Arrestin2 High AT1R Expression Ymax (%) [2] [%]	EC50 [2] [nM]	IP-1 Ymax (%) [3] [%]	EC50 [3] [nM]
CCCCOC(=O)NS(=O)(=O)c1sc(-c2ccccc2)cc1-c1ccc(Cn2c(CC)nc3c(C)cc(C)nc32)cn1 [Example 50, Butyl (3-(5-((2-ethyl-5,7-dimethyl-3H-imidazo[4,5-b]pyridin-3-yl)methyl)pyridin-2-yl)-5-phenylthiophen-2-yl)sulfonylcarbamate]	10.9	21.8	64.9	16.8	6.7	132
CCc1nc2c(C)cc(C)nc2n1Cc1ccc(-c2cc(N3C(=O)c4ccccc4C3=O)ccc2-c2nn[nH]n2)cc1 [Example 27, 2-(4′-((2-ethyl-5,7-dimethyl-3H-imidazo[4,5-b]pyridin-3-yl)methyl)-6-(2H-tetrazol-5-yl)-[1,1′-biphenyl]-3-yl)isoindoline-1,3-dione]	206	10.6	20.1	89.5		> 100000
CCCCOC(=O)NS(=O)(=O)c1sc(-c2cccnc2OC)cc1-c1ccc(Cn2c(CC)nc3c(C)cc(C)nc32)cc1 [Example 47, Butyl (3-(4-((2-ethyl-5,7-dimethyl-3H-imidazo[4,5-b]pyridin-3-yl)methyl)phenyl)-5-(2-methoxypyridin-3-yl)thiophen-2-yl)sulfonylcarbamate]	10.1	24.5	56.6	14.7	3.8	6.2
CCCCC1=NC2(CCCC2)C(=O)N1Cc1ccc(-c2cc(-n3ccc4ccccc43)ccc2-c2nn[nH]n2)cc1 [Example 105]	16	31.0	58.0	28.9		> 100000
CCc1nc2c(C)cc(C)nc2n1Cc1ccc(-c2cc(N3CCC(F)(F)C3)ccc2-c2nn[nH]n2)cc1 [Example 51]	21.2	21.1	43.8	99	3.7	92.1
CCCCC1=NC2(CCCC2)C(=O)N1Cc1ccc(-c2cc(-c3ccccc3CO)ccc2-c2nn[nH]n2)cc1 [Example 128]	25.7	14.5	11.0	133		> 100000
CCc1nc2c(C)cc(C)nc2n1Cc1ccc(-c2cc(-n3ccc4cc(F)ccc43)ccc2-c2nn[nH]n2)cc1 [Example 85]	18.2	16.9	88.3	10.5		> 100000
CCc1nc2c(C)cc(C)nc2n1Cc1ccc(-c2cc(Nc3ccccc3)ccc2-c2nn[nH]n2)cc1 [Example 93]	7.9	32.6	82.8	7.5	5.4	21.2
CCc1nc2c(C)cc(C)nc2n1Cc1ccc(-c2cc(-c3ccc(C(F)(F)F)cc3)ccc2-c2nn[nH]n2)cc1 [Example 7]	14.4	21.6	60.0	37.4	9.2	83.9
CCc1nc2c(C)cc(C)nc2n1Cc1ccc(-c2cc(-c3cccc4cnccc34)ccc2-c2nn[nH]n2)cc1 [Example 16]	59.8	17.1	69.9	24.7	3.6	55.3
CCc1nc2c(C)cc(C)nc2n1Cc1ccc(-c2cc(Oc3cccc(Cl)c3)ccc2-c2nnn[nH]2)cc1 [Example 206]	11.1	21.2	57.9	15.8	4.8	35.4
CCCCC1=NC2(CCCC2)C(=O)N1Cc1ccc(-c2cc(Nc3ccccc3)ccc2-c2nn[nH]n2)cc1 [Example 99, 2-butyl-3-((5′-(phenylamino)-2′-(2H-tetrazol-5-yl)-[1,1′-biphenyl]-4-yl)methyl)-1,3-diazaspiro[4.4]non-1-en-4-one]	32.4	6.3	9.6	144		> 100000
CCc1nc2c(C)cc(C)nc2n1Cc1ccc(-c2cc(Oc3ccc(C)cn3)ccc2-c2nn[nH]n2)cc1 [Example 248]	26.5	18.2	79.5	14	6.8	81.7
CCc1nc2c(C)cc(C)nc2n1Cc1ccc(-c2cc(-c3ccc(OC(F)(F)F)cc3)ccc2-c2nn[nH]n2)cc1 [Example 6]	14.1	27.0	73.5	51	4.9	14.6
CCc1nc2c(C)cc(C)nc2n1Cc1ccc(-c2cc(N3CCc4ccccc43)ccc2-c2nn[nH]n2)cc1 [Example 96]	12.6	33.0	77.6	12.9	5.3	28.7
CCCCC1=NC2(CCCC2)C(=O)N1Cc1ccc(-c2cc(-c3ccsc3)ccc2-c2nn[nH]n2)cc1 [Example 130]	21.9	31.2	80.0	26.1	5.9	108
CCCCC1=NC2(CCCC2)C(=O)N1Cc1ccc(-c2cc(N3CCCC(C)(C)C3)ccc2-c2nn[nH]n2)cc1 [Example 102]	44.4	41.0	71.6	99.6	3.8	723
